The values that follow come from patent US20240025884A1 (Dong-A ST Co., Ltd., priority 2022, published 2024).

GCN2, sequence (Q9P2K8 whole entry): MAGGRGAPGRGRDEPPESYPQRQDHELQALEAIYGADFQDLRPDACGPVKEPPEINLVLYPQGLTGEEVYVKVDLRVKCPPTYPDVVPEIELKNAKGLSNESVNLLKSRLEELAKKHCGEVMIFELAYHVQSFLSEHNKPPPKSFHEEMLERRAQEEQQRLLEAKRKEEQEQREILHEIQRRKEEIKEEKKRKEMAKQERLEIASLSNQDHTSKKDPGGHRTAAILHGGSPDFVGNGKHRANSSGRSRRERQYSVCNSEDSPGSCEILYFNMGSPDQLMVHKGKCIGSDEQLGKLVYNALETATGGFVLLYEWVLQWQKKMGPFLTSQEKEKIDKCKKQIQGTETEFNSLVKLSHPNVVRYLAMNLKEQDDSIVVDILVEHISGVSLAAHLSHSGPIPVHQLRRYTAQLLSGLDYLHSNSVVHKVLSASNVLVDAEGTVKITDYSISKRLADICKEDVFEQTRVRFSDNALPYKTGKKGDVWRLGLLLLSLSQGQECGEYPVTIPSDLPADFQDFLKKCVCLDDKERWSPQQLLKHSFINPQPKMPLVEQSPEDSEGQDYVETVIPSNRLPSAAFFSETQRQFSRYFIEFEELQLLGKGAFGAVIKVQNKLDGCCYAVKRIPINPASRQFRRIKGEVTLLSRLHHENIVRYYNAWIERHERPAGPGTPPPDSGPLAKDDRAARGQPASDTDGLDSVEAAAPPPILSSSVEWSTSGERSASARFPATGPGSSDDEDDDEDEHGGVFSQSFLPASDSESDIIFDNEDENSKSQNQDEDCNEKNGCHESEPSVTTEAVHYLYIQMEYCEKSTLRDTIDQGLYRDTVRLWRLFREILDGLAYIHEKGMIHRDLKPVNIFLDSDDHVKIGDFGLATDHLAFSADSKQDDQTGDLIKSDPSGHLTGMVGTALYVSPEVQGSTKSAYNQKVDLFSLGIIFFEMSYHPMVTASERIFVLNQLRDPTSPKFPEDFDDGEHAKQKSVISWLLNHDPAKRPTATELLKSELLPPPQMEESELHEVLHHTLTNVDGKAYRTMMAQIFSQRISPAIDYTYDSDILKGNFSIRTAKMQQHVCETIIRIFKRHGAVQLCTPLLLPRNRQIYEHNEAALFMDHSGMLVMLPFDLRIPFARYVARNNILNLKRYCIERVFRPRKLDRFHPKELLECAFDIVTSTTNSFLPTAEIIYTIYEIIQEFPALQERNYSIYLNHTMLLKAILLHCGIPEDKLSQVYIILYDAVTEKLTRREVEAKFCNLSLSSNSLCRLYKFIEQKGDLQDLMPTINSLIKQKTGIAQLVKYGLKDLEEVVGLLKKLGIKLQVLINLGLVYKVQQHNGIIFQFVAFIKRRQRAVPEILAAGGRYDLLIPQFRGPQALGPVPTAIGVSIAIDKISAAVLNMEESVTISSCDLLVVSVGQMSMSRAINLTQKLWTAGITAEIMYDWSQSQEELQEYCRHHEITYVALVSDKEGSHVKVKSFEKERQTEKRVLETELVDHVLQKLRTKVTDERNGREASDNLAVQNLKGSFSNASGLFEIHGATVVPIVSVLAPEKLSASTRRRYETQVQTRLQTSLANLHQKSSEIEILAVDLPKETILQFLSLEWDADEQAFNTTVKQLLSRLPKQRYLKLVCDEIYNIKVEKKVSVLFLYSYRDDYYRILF

This test addresses GCN2 (Homo sapiens (Human), UniProt Q9P2K8). Kind of test: GCN2 Biochemical Assay (TR-FRET, GFP-eIF2S1 substrate phosphorylation). To be noted: read-out: IC50 (GCN2 Inhibitory Activity). The procedure, abridged: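 In-house GCN2 (1.6 nM 2× stock) phosphorylates GFP-eIF2S1 (50 nM 2× stock) with ATP (0.2 mM 2× stock) and tRNA, pH 7.5, 70 min at room temperature; 10-point 3.16-fold compound series. TR-FRET detection with Tb-anti-phospho antibody, 2–3 h, Ex 340/Em 490/520 nm; artifact plate spiked with phospho-substrate.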
As for `CCN(C)c1cc(O[C@H]2CCN(CC(=O)Nc3cccc4c(-c5nc(Nc6cc(C)n(C)n6)ncc5C)c[nH]c34)C2)ncn1` [Example 154, (S)-N-(3-(2-((1,5-dimethyl-1H-pyrazol-3-yl)amino)-5-methylpyrimidin-4-yl)-1H-indol-7-yl)-2-(3-((6-(ethyl(methyl)amino)pyrimidin-4-yl)oxy)pyrrolidin-1-yl)acetamide], the IC50 is under 0.01 µM.

With `Cc1cnc(Nc2cc(C)n(C)n2)nc1-c1c[nH]c2c(N3Cc4c(cccc4-c4ccc(N(C)C)cc4)C3=O)cccc12` [Example 436, 2-(3-(2-((1,5-dimethyl-1H-pyrazol-3-yl)amino)-5-methylpyrimidin-4-yl)-1H-indol-7-yl)-4-(4-(dimethylamino)phenyl)isoindolin-1-one], the IC50 is 0.01 to 0.1 µM.

For the compound `C/C(=C\c1cccc2c1CN(c1cccc3c(-c4nc(Nc5cc(C)n(C)n5)ncc4C)c[nH]c13)C2=O)C(N)=O` [Example 361, (E)-3-(2-(3-(2-((1,5-dimethyl-1H-pyrazol-3-yl)amino)-5-methylpyrimidin-4-yl)-1H-indol-7-yl)-1-oxoisoindolin-4-yl)-2-methylacrylamide], the IC50 is under 0.01 µM.

As to `CCCCNc1cc(O[C@H]2CCN(CC(=O)Nc3cccc4c(-c5nc(Nc6cc(C)n(C)n6)ncc5C)c[nH]c34)C2)ncn1` [Example 144, (S)-2-(3-((6-(butylamino)pyrimidin-4-yl)oxy)pyrrolidin-1-yl)-N-(3-(2-((1,5-dimethyl-1H-pyrazol-3-yl)amino)-5-methylpyrimidin-4-yl)-1H-indol-7-yl)acetamide], the IC50 was under 0.01 µM.

For the compound `Cc1cnc(Nc2cc(C)n(C)n2)nc1-c1c[nH]c2c(NC(=O)CN3CC[C@H](Oc4cc(NC5CCCCC5)ncn4)C3)cccc12` [Example 152, (S)-2-(3-((6-(cyclohexylamino)pyrimidin-4-yl)oxy)pyrrolidin-1-yl)-N-(3-(2-((1,5-dimethyl-1H-pyrazol-3-yl)amino)-5-methylpyrimidin-4-yl)-1H-indol-7-yl)acetamide], the IC50 lay within 0.01 to 0.1 µM.

In the case of `COC(=O)c1sc2ccccc2c1O[C@H]1CCN(CC(=O)Nc2cccc3c(-c4nc(Nc5cc(C)n(C)n5)ncc4C)c[nH]c23)C1` [Example 106, methyl (S)-3-((1-(2-((3-(2-((1,5-dimethyl-1H-pyrazol-3-yl)amino)-5-methylpyrimidin-4-yl)-1H-indol-7-yl)amino)-2-oxoethyl)pyrrolidin-3-yl)oxy)benzo[b]thiophene-2-carboxylate], the IC50 lay in the range of 0.1 to 1 µM.

For `Cc1cc(-c2cccc3c2CN(c2cccc4c(-c5nc(Nc6cc(C)n(C)n6)ncc5C)c[nH]c24)C3=O)ccn1` [Example 429, 2-(3-(2-((1,5-dimethyl-1H-pyrazol-3-yl)amino)-5-methylpyrimidin-4-yl)-1H-indol-7-yl)-4-(2-methylpyridin-4-yl)isoindolin-1-one], the IC50 is under 0.01 µM.

`Cc1cc(-c2ccc(F)c3c2CN(c2cccc4c(-c5nc(Nc6cc(C)n(C)n6)ncc5C)c[nH]c24)C3=O)cc(C)n1` [Example 488, 2-(3-(2-((1,5-dimethyl-1H-pyrazol-3-yl)amino)-5-methylpyrimidin-4-yl)-1H-indol-7-yl)-4-(2,6-dimethylpyridin-4-yl)-7-fluoroisoindolin-1-one]: the IC50 is under 0.01 µM.

`CCc1cnc(Nc2cc(C)n(C)n2)nc1-c1c[nH]c2c(NC(=O)CN3CC[C@H](Oc4ccnc(NC5CC5)n4)C3)cccc12` (stereo in doubt) [Example 11, (3-((2-(cyclopropylamino)pyrimidin-4-yl)oxy)pyrrolidin-1-yl)-N-(3-(2-((1,5-dimethyl-1H-pyrazol-3-yl)amino)-5-ethylpyrimidin-4-yl)-1H-indol-7-yl)acetamide]: the IC50 was under 0.01 µM.

As to `Cc1cnc(Nc2cc(C)n(C)n2)nc1-c1c[nH]c2c(NC(=O)CN3CC[C@H](Oc4ncnc(N(C)C)n4)C3)cccc12` [Example 136, (S)-N-(3-(2-((1,5-dimethyl-1H-pyrazol-3-yl)amino)-5-methylpyrimidin-4-yl)-1H-indol-7-yl)-2-(3-((4-(dimethylamino)-1,3,5-triazin-2-yl)oxy)pyrrolidin-1-yl)acetamide], the IC50 was under 0.01 µM.

`Cc1cnc(Nc2cc(C)n(C)n2)nc1-c1c[nH]c2c(NC(=O)CN3CC[C@H](Oc4cncc(NC5CC5)n4)C3)cccc12` [Example 243, (S)-2-(3-((6-(cyclopropylamino)pyrazin-2-yl)oxy)pyrrolidin-1-yl)-N-(3-(2-((1,5-dimethyl-1H-pyrazol-3-yl)amino)-5-methylpyrimidin-4-yl)-1H-indol-7-yl)acetamide]: the IC50 was 0.01 to 0.1 µM.

On to `CONc1nccc(O[C@H]2CCN(CC(=O)Nc3cccc4c(-c5nc(Nc6cc(C)n(C)n6)ncc5C)c[nH]c34)C2)n1` [Example 219, (S)-N-(3-(2-((1,5-dimethyl-1H-pyrazol-3-yl)amino)-5-methylpyrimidin-4-yl)-1H-indol-7-yl)-2-(3-((2-(methoxyamino)pyrimidin-4-yl)oxy)pyrrolidin-1-yl)acetamide], for which the IC50 was under 0.01 µM.

For `Cc1cnc(Nc2cc(C)n(C)n2)nc1-c1c[nH]c2c(NC(=O)CN3CC[C@H](Oc4nc(NCc5ccccc5)ncc4F)C3)cccc12` [Example 230, (S)-2-(3-((2-(benzylamino)-5-fluoropyrimidin-4-yl)oxy)pyrrolidin-1-yl)-N-(3-(2-((1,5-dimethyl-1H-pyrazol-3-yl)amino)-5-methylpyrimidin-4-yl)-1H-indol-7-yl)acetamide], the IC50 is 0.01 to 0.1 µM.

`Cc1cc(-c2nccc3c2CN(c2cccc4c(-c5nc(Nc6cc(C)n(C)n6)ncc5C)c[nH]c24)C3=O)ccn1` [Example 502, 2-(3-(2-((1,5-dimethyl-1H-pyrazol-3-yl)amino)-5-methylpyrimidin-4-yl)-1H-indol-7-yl)-4-(2-methylpyridin-4-yl)-2,3-dihydro-1H-pyrrolo[3,4-c]pyridin-1-one]: the IC50 was under 0.01 µM.

As to `Cc1ncc(Br)c(O[C@H]2CCN(CC(=O)Nc3cccc4c(-c5nc(Nc6cc(C)n(C)n6)ncc5C)c[nH]c34)C2)n1` [Example 97, (S)-2-(3-((5-bromo-2-methylpyrimidin-4-yl)oxy)pyrrolidin-1-yl)-N-(3-(2-((1,5-dimethyl-1H-pyrazol-3-yl)amino)-5-methylpyrimidin-4-yl)-1H-indol-7-yl)acetamide], the IC50 is 0.01 to 0.1 µM.

With `Cc1cnc(Nc2cc(C)n(C)n2)nc1-c1c[nH]c2c(N3Cc4c(NC(=O)C5CCC(=O)CC5)cccc4C3=O)cccc12` [Example 320, N-(2-(3-(2-((1,5-dimethyl-1H-pyrazol-3-yl)amino)-5-methylpyrimidin-4-yl)-1H-indol-7-yl)-1-oxoisoindolin-4-yl)-4-oxocyclohexane-1-carboxamide], the IC50 was under 0.01 µM.

Turning to `Cc1cnc(Nc2cc(C)n(C)n2)nc1-c1c[nH]c2c(NC(=O)CN3CCC(CC#N)C3)cccc12` (stereo not drawn) [Example 45, 2-(3-(cyanomethyl)pyrrolidin-1-yl)-N-(3-(2-((1,5-dimethyl-1H-pyrazol-3-yl)amino)-5-methylpyrimidin-4-yl)-1H-indol-7-yl)acetamide], the IC50 lay within 0.1 to 1 µM.

Consider `COc1ccccc1-c1cccc2c1CN(c1cccc3c(-c4nc(Nc5cc(C)n(C)n5)ncc4C)c[nH]c13)C2=O` [Example 438, 2-(3-(2-((1,5-dimethyl-1H-pyrazol-3-yl)amino)-5-methylpyrimidin-4-yl)-1H-indol-7-yl)-4-(2-methoxyphenyl)isoindolin-1-one], for which the IC50 lay within 0.01 to 0.1 µM.

On to `Cc1cnc(Nc2cc(C)n(C)n2)nc1-c1c[nH]c2c(NC(=O)CN3CC[C@H](Oc4ccc(-c5ccccc5)cc4)C3)cccc12` [Example 100, (S)-2-(3-([1,1′-biphenyl]-4-yloxy)pyrrolidin-1-yl)-N-(3-(2-((1,5-dimethyl-1H-pyrazol-3-yl)amino)-5-methylpyrimidin-4-yl)-1H-indol-7-yl)acetamide], for which the IC50 fell in the range of 0.1 to 1 µM.

Turning to `Cc1cnc(Nc2cc(C)n(C)n2)nc1-c1c[nH]c2c(NC(=O)CN3CC[C@H](Oc4ccsc4C)C3)cccc12` [Example 115, (S)-N-(3-(2-((1,5-dimethyl-1H-pyrazol-3-yl)amino)-5-methylpyrimidin-4-yl)-1H-indol-7-yl)-2-(3-((2-methylthiophen-3-yl)oxy)pyrrolidin-1-yl)acetamide], the IC50 lay within 0.01 to 0.1 µM.

Take `Cc1cnc(Nc2cc(C)n(C)n2)nc1-c1c[nH]c2c(NC(=O)CN3CC[C@H](Oc4ccsc4C(=O)NC4CC4)C3)cccc12` [Example 111, (S)-N-cyclopropyl-3-((1-(2-((3-(2-((1,5-dimethyl-1H-pyrazol-3-yl)amino)-5-methylpyrimidin-4-yl)-1H-indol-7-yl)amino)-2-oxoethyl)pyrrolidin-3-yl)oxy)thiophene-2-carboxamide]: the IC50 was under 0.01 µM.

Take `CCN(CC)C(=O)/C=C/c1cccc2c1CN(c1cccc3c(-c4nc(Nc5cc(C)n(C)n5)ncc4C)c[nH]c13)C2=O` [Example 368, (E)-3-(2-(3-(2-((1,5-dimethyl-1H-pyrazol-3-yl)amino)-5-methylpyrimidin-4-yl)-1H-indol-7-yl)-1-oxoisoindolin-4-yl)-N,N-diethylacrylamide]: the IC50 was under 0.01 µM.

On to `Cc1cnc(Nc2cc(C)n(C)n2)nc1-c1c[nH]c2c(NC(=O)CN3CC[C@H](Oc4cnc(-c5ccccc5)nc4)C3)cccc12` (stereo in doubt) [Example 257, N-(3-(2-((1,5-dimethyl-1H-pyrazol-3-yl)amino)-5-methylpyrimidin-4-yl)-1H-indol-7-yl)-2-(3-((2-phenylpyrimidin-5-yl)oxy)pyrrolidin-1-yl)acetamide], for which the IC50 was 0.1 to 1 µM.

Consider `Cc1cc(-c2cccc3c2CN(c2cccc4c(-c5nc(Nc6cc(C)n(C)n6)ncc5C)c[nH]c24)C3=O)cc(C)n1` [Example 479, 2-(3-(2-((1,5-dimethyl-1H-pyrazol-3-yl)amino)-5-methylpyrimidin-4-yl)-1H-indol-7-yl)-4-(2,6-dimethylpyridin-4-yl)isoindolin-1-one], for which the IC50 was under 0.01 µM.
